SMILES strings stand for the structures. Activity calls are given as the source filed them. The rule behind the calls is not given here.

The text below walks through data of ChEMBL document CHEMBL5360546, “Identification and characterisation of the tegument-expressed aldehyde dehydrogenase SmALDH_312 of Schistosoma mansoni, a target of disulfiram” (Eur J Med Chem, 2023).

Assay [1] can be described thus: Inhibition of recombinant Schistosoma mansoni ALDH312 expressed in baculovirus Sf9 cells at 100 uM in presence of NADPH relative to control.
In assay [2] the target is T1, Aldehyde dehydrogenase, mitochondrial (Homo sapiens) (UniProt P05091).
T1 sequence (whole entry): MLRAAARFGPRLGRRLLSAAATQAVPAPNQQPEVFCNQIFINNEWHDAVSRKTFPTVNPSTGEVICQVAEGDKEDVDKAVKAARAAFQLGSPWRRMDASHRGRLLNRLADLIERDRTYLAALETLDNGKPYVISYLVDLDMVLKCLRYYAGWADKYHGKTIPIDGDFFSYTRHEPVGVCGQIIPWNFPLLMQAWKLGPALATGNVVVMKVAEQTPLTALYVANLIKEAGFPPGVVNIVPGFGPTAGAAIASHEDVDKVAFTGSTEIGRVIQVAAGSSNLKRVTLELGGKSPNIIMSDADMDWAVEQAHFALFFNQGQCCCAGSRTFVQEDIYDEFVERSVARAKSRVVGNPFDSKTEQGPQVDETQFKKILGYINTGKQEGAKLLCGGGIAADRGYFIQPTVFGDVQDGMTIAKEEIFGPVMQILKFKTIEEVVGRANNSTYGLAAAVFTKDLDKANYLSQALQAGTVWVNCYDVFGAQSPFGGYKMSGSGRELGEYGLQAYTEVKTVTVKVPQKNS
Nature of the assay: Inhibition of human ALDH2 at 100 uM in presence of NADPH.

A short description of assay [3]: Inhibition of recombinant Schistosoma mansoni ALDH312 expressed in baculovirus Sf9 cells in presence of NADPH.
Assay [4] is described as follows: Inhibition of recombinant Schistosoma mansoni ALDH312 expressed in baculovirus Sf9 cells at 50 uM in presence of NADPH relative to control.
In assay [5] the target is T1, Aldehyde dehydrogenase, mitochondrial (Homo sapiens). Nature of the assay: Inhibition of human ALDH2 at 100 uM in presence of NADPH relative to control.
The test system of assay [6] is Schistosoma mansoni. As to the kind of experiment: Antischistosomal activity against Schistosoma mansoni couple assessed as couple separation at 1 uM measured after 24 to 72 hrs. It is filed as functional, organism-based. To be noted: time 24-72 hrs.
Assay [7] has as its system Schistosoma mansoni. Nature of the assay: Antischistosomal activity against Schistosoma mansoni couple assessed as couple separation at 25 uM measured at day 1 relative to control. To be noted: time 1 day. It is filed as functional.
Assay [8] concerns Schistosoma mansoni. Nature of the assay: Antischistosomal activity against Schistosoma mansoni couple assessed as couple separation at 100 uM measured at day 1 relative to control. It is filed as functional. The conditions noted are these: time 1 day.
Assay [9] relates to Schistosoma mansoni. Nature of the assay: Antischistosomal activity against Schistosoma mansoni couple assessed as reduction in couple attachment at 10 uM measured at day 3 relative to control. It is filed as functional. Set-up: scale not given: the % may be the effect or the level left. To be noted: time 3 day.
The test system of assay [10] is Schistosoma mansoni. As to the kind of experiment: Antischistosomal activity against Schistosoma mansoni couple assessed as decrease in couple attachment at 25 uM measured upto 3 days. It counts as functional, organism-based. To be noted: time <= 3.0 day.
Assay [11] relates to Schistosoma mansoni. As to the kind of experiment: Antischistosomal activity against Schistosoma mansoni couple assessed as worm motility at 1 uM measured after 72 hrs. It counts as functional, organism-based.
Assay [12] deals with Schistosoma mansoni. As to the kind of experiment: Antischistosomal activity against Schistosoma mansoni couple assessed as reduction worm motility at 10 to 200 uM measured at day 3. The conditions noted are these: dose 10-200 µM, time 3.0 day. It is filed as functional, organism-based.
Assay [13] deals with Schistosoma mansoni. Nature of the assay: Antischistosomal activity against Schistosoma mansoni couple assessed as decrease in total number of eggs measured after 72 hrs. It counts as functional, organism-based. The conditions noted are these: dose 1-200 µM.
In assay [14] the test system is Schistosoma mansoni. Nature of the assay: Induction of morphological changes in Schistosoma mansoni couple assessed as effect on gonads tegument at 10 uM by confocal laser scanning microscopy analysis. It is filed as functional, organism-based.
Assay [15] has as its system Schistosoma mansoni. Nature of the assay: Induction of morphological changes in Schistosoma mansoni couple assessed as effect on gonads internal structure at 10 uM by confocal laser scanning microscopy analysis. It counts as functional, organism-based.
Assay [16] concerns Schistosoma mansoni. As to the kind of experiment: Induction of morphological changes in male Schistosoma mansoni assessed as formation of blebs at 25 uM by confocal laser scanning microscopy analysis. It counts as functional, organism-based.
Assay [17] deals with Schistosoma mansoni. As to the kind of experiment: Induction of morphological changes in female Schistosoma mansoni assessed as formation of blebs at 25 uM by confocal laser scanning microscopy analysis. It counts as functional, organism-based.
Assay [18] concerns Schistosoma mansoni. As to the kind of experiment: Induction of morphological changes in male Schistosoma mansoni assessed as formation of ruptures at 25 uM by confocal laser scanning microscopy analysis. It counts as functional, organism-based.
Assay [19] has as its system Schistosoma mansoni. Nature of the assay: Induction of morphological changes in female Schistosoma mansoni assessed as formation of ruptures at 25 uM by confocal laser scanning microscopy analysis. It is filed as functional, organism-based.
Assay [20] concerns Schistosoma mansoni. Nature of the assay: Induction of morphological changes in Schistosoma mansoni couple assessed as loss of structural integrity in reproductive organs at 25 uM by scanning electron microscopy analysis. It is filed as functional, organism-based.
Assay [21] has as its system Schistosoma mansoni. As to the kind of experiment: Induction of morphological changes in male Schistosoma mansoni assessed as degeneration of spermatogonia at 25 uM by scanning electron microscopy analysis. It counts as functional, organism-based.
The subject of assay [22] is Schistosoma mansoni. As to the kind of experiment: Induction of morphological changes in female Schistosoma mansoni assessed as degeneration of oocytes at 25 uM by scanning electron microscopy analysis. It counts as functional, organism-based.
Assay [23] has as its system Schistosoma mansoni. As to the kind of experiment: Induction of morphological changes in Schistosoma mansoni couple assessed as swelling of tegument at 10 to 25 uM by confocal laser scanning microscopy analysis. To be noted: dose 10-25 µM. It is filed as functional, organism-based.
Assay [24] concerns Schistosoma mansoni. Nature of the assay: Induction of morphological changes in Schistosoma mansoni couple assessed as detachment of tegument at 10 to 25 uM by confocal laser scanning microscopy analysis. It counts as functional, organism-based. The conditions noted are these: dose 10-25 µM.
Assay [25] concerns Schistosoma mansoni. Nature of the assay: Induction of morphological changes in Schistosoma mansoni couple assessed as tubercles rupture at 10 to 25 uM by confocal laser scanning microscopy analysis. It counts as functional, organism-based. To be noted: dose 10-25 µM.
The test system of assay [26] is Schistosoma mansoni. As to the kind of experiment: Induction of morphological changes in Schistosoma mansoni couple assessed as formation of blebs at 10 to 25 uM by confocal laser scanning microscopy analysis. To be noted: dose 10-25 µM. It counts as functional, organism-based.
Assay [27] deals with Schistosoma mansoni. Nature of the assay: Inhibition of cell proliferation in Schistosoma mansoni couple assessed as reduction in EdU positive number measured after 3 days by Hoechst 33342 staining based analysis. It is filed as functional. The conditions noted are these: dose 10-25 µM, time 3.0 day.
The subject of assay [28] is Schistosoma mansoni. As to the kind of experiment: Antischistosomal activity against Schistosoma mansoni larva assessed as lethality at 500 nM measured after 72 hrs by Trypan blue staining based analysis. It counts as functional, organism-based.
For assay [29], the system named is Schistosoma mansoni. As to the kind of experiment: Downregulation of Smaldh312 level in Schistosoma mansoni male at 10 uM measured after 72 hrs by qRT-PCR analysis. It is filed as functional.
Assay [30] deals with Schistosoma mansoni. Nature of the assay: Downregulation of Smnanos1 transcript level in Schistosoma mansoni male at 10 to 25 uM measured after 72 hrs by qRT-PCR analysis. It is filed as functional. To be noted: dose 10-25 µM. Background: Quantitative PCR measures a nucleic acid by following its amplification.
Assay [31] has as its system Schistosoma mansoni. As to the kind of experiment: Downregulation of Smnanos1 transcript level in Schistosoma mansoni female at 10 to 25 uM measured after 72 hrs by qRT-PCR analysis. It counts as functional. The conditions noted are these: dose 10-25 µM.
In assay [32] the test system is Schistosoma mansoni. As to the kind of experiment: Upregulation of Smnanos2 transcript level in Schistosoma mansoni male at 10 uM measured after 72 hrs by qRT-PCR analysis. It is filed as functional.
The subject of assay [33] is Schistosoma mansoni. Nature of the assay: Upregulation of Smnanos2 transcript level in Schistosoma mansoni female at 10 uM measured after 72 hrs by qRT-PCR analysis. It is filed as functional.

For the compound `CC(C)=CCC/C(C)=C\CNCCNC1C2CC3CC(C2)CC1C3` (stereo not given), in assay [1], the inhibition is 100%. Further, the inhibition entry in [2] is “Active”. The IC50 in assay [3] is 12.5 µM.
As to `O=C(Nc1ccc(C(F)(F)F)c(C(F)(F)F)c1)c1cc(Cl)ccc1O`, the inhibition in assay [1] and in assay [4] was 100% in each case. For the same compound, in assay [2], the inhibition entry is “inactive”. In [3], the IC50 amounted to 7.5 µM.
With `CCN(CC)C(=S)SSC(=S)N(CC)CC` [DISULFIRAM], the inhibition was 41.2% in assay [1], 99% in [5] and “Dose-Dependent Effect” in assay [27]. Moreover, the outcome in assay [6], in assay [11], in assay [14], in assay [15] and in assay [33] was inactive. Besides, the Activity is 50% in [7], 100% in [8], 50% in assay [9] and “Dose-Dependent Effect” in [13]. Also, the outcome in assay [10], in assay [12], in [16], in assay [17], in assay [18] and in assay [19] was Active. In addition, the result in assay [20], in assay [21], in assay [22], in assay [23], in assay [24] and in assay [25] was Active. Moreover, the result in assay [26], in assay [28], in assay [29], in assay [30], in assay [31] and in assay [32] was Active.
Take `CN1CCC(NCc2cccc(-c3ccc(S(=O)(=O)NCc4ccccc4)cc3)c2)CC1`: the inhibition in assay [1] came out at 80.4%. The inhibition result in [2] is “inactive”. Also, the IC50 in assay [3] amounted to 21.8 µM.

The inhibition is how much of the control response was suppressed. As usually defined, the IC50 is the concentration that gives 50% inhibition.
